Among the data in US20090099192A1, “Substituted 1H-pyrrole-2,5-diones” (Bayer CropScience AG, priority 2004, published 2009) are logP values, retold here.

Structures are written as SMILES.

The data set can be described thus: logP determination by HPLC on reversed-phase column (C 18), EEC Directive 79/831 Annex V.A8. It counts as physicochemical. The settings on record: reversed-phase C 18, 43° C., acid range (0.1% aqueous phosphoric acid, acetonitrile), marked a). The protocol: a) The logP values given in table 1 were determined in accordance with EEC Directive 79/831 Annex V.A8 by HPLC (High Performance Liquid Chromatography) on a reversed-phase column (C 18). Temperature: 43° C. (a) Mobile phases for the determination in the acid range: 0.1% aqueous phosphoric acid, acetonitrile; linear gradient from 10% acetonitrile to 90% acetonitrile—corresponding measurement results are marked a) in table 1. Calibration was carried out using unbranched alkan-2-ones (having 3 to 16 carbon atoms) with known logP values (determination of the logP values by the retention times using linear interpolation between two successive alkanones).
In the case of `Cc1ccc(-c2ccc(Cl)cc2)cc1C1=C(O)C(=O)N(C(C)c2ccccc2Cl)C1=O` (racemic) [Example 136], the logP entry is “logP = 4.75^a)”. The entry for `Cc1ccc(-c2ccc(Cl)cc2)cc1C1=C(O)C(=O)N(C(C)c2cccc(Cl)c2)C1=O` (racemic) [Example 141] is “logP = 4.84^a)”. Consider `CCOC(=O)C1(N2C(=O)C(O)=C(c3ccccc3Cl)C2=O)CCC(OC)CC1` (single isomer, unassigned) [Example 149], for which the logP entry is given as “logP = 2.76^a)”. The value for `CCOC(=O)C1(N2C(=O)C(O)=C(c3ccccc3Cl)C2=O)CCC(OC)CC1` (single isomer, unassigned) [Example 151] was “logP = 2.53^a)”; that for `Cc1cc(C)c(C2=C(OC(=O)C(C)(C)C(C)C)C(=O)N(C(C)C)C2=O)c(C)c1` [Example 20] was “logP = 5.87^a)”. Turning to `O=C1C(O)=C(c2ccccc2Cl)C(=O)N1C1CCCCC1` [Example 22], the logP result is “logP = 3.17^a)”. For the molecule `CC(C)(C)C(=O)OC1=C(c2ccccc2Cl)C(=O)N(C2CCCCC2)C1=O` [Example 23], the logP entry is listed as “logP = 5.39^a)”.

On to `O=C1C(O)=C(c2ccccc2Cl)C(=O)N1c1ccccc1` [Example 24], for which the logP result is given as “logP = 2.43^a)”. With `O=C1C(O)=C(c2ccccc2Cl)C(=O)N1c1ccccc1C(F)(F)F` [Example 25], the logP entry is “logP = 2.60^a)”.

Take `O=C1C(O)=C(c2ccccc2Cl)C(=O)N1c1cccc(C(F)(F)F)c1` [Example 26]: the logP result was “logP = 3.04^a)”. On to `O=C1C(O)=C(c2ccccc2Cl)C(=O)N1c1ccc(C(F)(F)F)cc1` [Example 27], for which the logP entry is given as “logP = 3.10^a)”.

With `CC(C)(C)C(=O)OC1=C(c2ccccc2Cl)C(=O)N(c2ccccc2)C1=O` [Example 28], the logP entry was “logP = 4.37^a)”. For `CCOc1ccc(N2C(=O)C(O)=C(c3ccccc3Cl)C2=O)nn1` [Example 29], the logP result is given as “logP = 1.82^a)”.

As for `O=C1C(O)=C(c2cccc(C(F)(F)F)c2)C(=O)N1CC(F)(F)F` [Example 38], the logP entry was “logP = 2.70^a)”.

For `O=C1C(O)=C(c2ccc(OC(F)(F)F)cc2)C(=O)N1CC(F)(F)F` [Example 39], the logP entry was “logP = 3.04^a)”.

Regarding `N#Cc1ccc(C2=C(O)C(=O)N(CC(F)(F)F)C2=O)cc1` [Example 40], the logP entry is listed as “logP = 1.94^a)”. Regarding `O=C1C(O)=C(c2ccc(Cl)cc2)C(=O)N1CC(F)(F)F` [Example 41], the logP result is given as “logP = 2.82^a)”.

Regarding `O=C1C(O)=C(c2cccc(OC(F)(F)F)c2)C(=O)N1CC(F)(F)F` [Example 42], the logP result was “logP = 2.82^a)”. With `O=C1C(O)=C(c2cc(Cl)cc(Cl)c2)C(=O)N1CC(F)(F)F` [Example 43], the logP entry was “logP = 2.67^a)”.

On to `O=C1C(O)=C(c2c(F)cccc2F)C(=O)N1CCC(F)(F)F` [Example 44], for which the logP result is “logP = 2.14^a)”. On to `O=C1C(O)=C(c2ccc(C(F)(F)F)cc2)C(=O)N1CCC(F)(F)F` [Example 47], for which the logP entry is given as “logP = 3.06^a)”. Take `O=C1C(O)=C(c2cccc(OC(F)(F)F)c2)C(=O)N1CCC(F)(F)F` [Example 48]: the logP entry was “logP = 3.30^a)”. Turning to `O=C1C(O)=C(c2cc(Cl)cc(Cl)c2)C(=O)N1CCC(F)(F)F` [Example 49], the logP entry is reported as “logP = 2.94^a)”. Consider `O=C1C(O)=C(c2c(F)cccc2F)C(=O)N1c1ccc(OC(F)(F)F)cc1` [Example 50], for which the logP entry was “logP = 2.80^a)”. Turning to `O=C1C(O)=C(c2ccccc2F)C(=O)N1c1ccc(OC(F)(F)F)cc1` [Example 51], the logP entry is “logP = 3.13^a)”. As for `O=C1C(O)=C(c2ccccc2Cl)C(=O)N1c1ccc(OC(F)(F)F)cc1` [Example 52], the logP result is reported as “logP = 3.27^a)”. In the case of `O=C1C(O)=C(c2cccc(C(F)(F)F)c2)C(=O)N1c1ccc(OC(F)(F)F)cc1` [Example 53], the logP result is reported as “logP = 3.75^a)”.

Regarding `N#Cc1ccc(C2=C(O)C(=O)N(c3ccc(OC(F)(F)F)cc3)C2=O)cc1` [Example 54], the logP result was “logP = 2.70^a)”. `O=C1C(O)=C(c2ccc(Cl)cc2)C(=O)N1c1ccc(OC(F)(F)F)cc1` [Example 55]: the logP result was “logP = 3.83^a)”.

`O=C1C(O)=C(c2cc(Cl)cc(Cl)c2)C(=O)N1c1ccc(OC(F)(F)F)cc1` [Example 57]: the logP entry is “logP = 3.56^a)”. Take `O=C1C(O)=C(c2c(F)cccc2F)C(=O)N1c1ccc(Cl)cc1` [Example 58]: the logP entry is listed as “logP = 2.45^a)”.

Turning to `O=C1C(O)=C(c2ccccc2F)C(=O)N1c1ccc(Cl)cc1` [Example 59], the logP entry is on record as “logP = 2.76^a)”. On to `O=C1C(O)=C(c2ccccc2Cl)C(=O)N1c1ccc(Cl)cc1` [Example 60], for which the logP entry is on record as “logP = 2.89^a)”. Turning to `O=C1C(O)=C(c2cccc(C(F)(F)F)c2)C(=O)N1c1ccc(Cl)cc1` [Example 61], the logP entry is on record as “logP = 3.45^a)”.

On to `O=C1C(O)=C(c2ccc(OC(F)(F)F)cc2)C(=O)N1c1ccc(Cl)cc1` [Example 62], for which the logP entry is on record as “logP = 3.80^a)”. Take `O=C1C(O)=C(c2ccc(Cl)cc2)C(=O)N1c1ccc(Cl)cc1` [Example 63]: the logP result is recorded as “logP = 3.51^a)”. The entry for `O=C1C(O)=C(c2ccc(C(F)(F)F)cc2)C(=O)N1c1ccc(Cl)cc1` [Example 64] is “logP = 3.35^a)”; for `O=C1C(O)=C(c2cccc(OC(F)(F)F)c2)C(=O)N1c1ccc(Cl)cc1` [Example 65] it is “logP = 3.59^a)”; for `O=C1C(O)=C(c2c(F)cccc2F)C(=O)N1c1ccc(C(F)(F)F)cc1` [Example 66] it is “logP = 3.48^a)”. Consider `O=C1C(O)=C(c2ccccc2F)C(=O)N1c1ccc(C(F)(F)F)cc1` [Example 67], for which the logP entry was “logP = 3.01^a)”. For the molecule `O=C1C(O)=C(c2cccc(C(F)(F)F)c2)C(=O)N1c1ccc(C(F)(F)F)cc1` [Example 68], the logP result was “logP = 3.59^a)”. In the case of `N#Cc1ccc(C2=C(O)C(=O)N(c3ccc(C(F)(F)F)cc3)C2=O)cc1` [Example 69], the logP entry is recorded as “logP = 2.80^a)”.

Regarding `O=C1C(O)=C(c2ccc(Cl)cc2)C(=O)N1c1ccc(C(F)(F)F)cc1` [Example 70], the logP result is “logP = 3.70^a)”.

Turning to `O=C1C(O)=C(c2cccc(OC(F)(F)F)c2)C(=O)N1c1ccc(C(F)(F)F)cc1` [Example 71], the logP result was “logP = 3.75^a)”. The entry for `O=C1C(O)=C(c2cc(Cl)cc(Cl)c2)C(=O)N1c1ccc(C(F)(F)F)cc1` [Example 72] is “logP = 3.42^a)”. Take `O=C1C(O)=C(c2ccccc2F)C(=O)N1c1cc(Cl)cc(Cl)c1` [Example 73]: the logP entry is given as “logP = 3.20^a)”. `O=C1C(O)=C(c2cccc(C(F)(F)F)c2)C(=O)N1c1cc(Cl)cc(Cl)c1` [Example 75]: the logP result is “logP = 3.78^a)”. Turning to `O=C1C(O)=C(c2ccc(OC(F)(F)F)cc2)C(=O)N1c1cc(Cl)cc(Cl)c1` [Example 76], the logP result is “logP = 4.15^a)”. For the molecule `N#Cc1ccc(C2=C(O)C(=O)N(c3cc(Cl)cc(Cl)c3)C2=O)cc1` [Example 77], the logP entry is listed as “logP = 2.80^a)”.

For `O=C1C(O)=C(c2ccc(Cl)cc2)C(=O)N1c1cc(Cl)cc(Cl)c1` [Example 78], the logP result is recorded as “logP = 3.94^a)”.

As for `O=C1C(O)=C(c2ccc(C(F)(F)F)cc2)C(=O)N1c1cc(Cl)cc(Cl)c1` [Example 79], the logP result was “logP = 3.75^a)”.
